pIC50: −log10 of the molar value. Marks after values point to notes of the source that are not given here.
Tests used:
P. multocida = assay: In-vitro MIC model, P. multocida; format: cell-based
M. haemolytica = assay: In-vitro MIC model, M. haemolytica; format: cell-based
S. aureus = assay: In-vitro MIC model, S. aureus; conditions: S. aureus ATCC 29213
E. coli = assay: In-vitro MIC model, E. coli
P. multocida 46572 = assay: In vivo mouse lung infection challenge model (murine efficacy model); conditions: 20 mg/kg subcutaneous, CD-1 mice, intranasal challenge, to Day 10; approximate (~%), harmonized relative to vehicle and M9
IL-1β = assay: Bovine whole blood assay, IL-1β; format: cell-based; conditions: drug concentration giving overstimulation of IL-1β over LPS (cellular toxicity signal)
Protocol: (§1) (protected from light) for 30 minutes.

TNF-α = assay: Bovine whole blood assay, LPS-induced TNF-α; format: cell-based; conditions: LPS 1 μg/mL
Protocol: as §1

[1] = tested on: BRD pathogens, M. haemolytica and P. multocida; assay: In-vitro MIC model, BRD pathogen screening panel; format: cell-based; conditions: asterisk = at least one BRD bacterial isolate
[2] = P. multocida 46572, murine efficacy challenge strain
[3] = M. haemolytica 46571, bovine efficacy challenge strain

Compound | MIC (P. multocida; [2]) [µg/mL] | MIC (P. multocida; P. multocida ATCC 43137) [µg/mL] | MIC (M. haemolytica; M. haemolytica 12726) [µg/mL] | MIC (M. haemolytica; [3]) [µg/mL] | MIC (M. haemolytica; M. haemolytica ATCC 33396) [µg/mL] | MIC (S. aureus) [µg/mL] | MIC (E. coli; E. coli ATCC 25922) [µg/mL] | MIC (E. coli; E. coli W3110) [µg/mL] | % Survival (P. multocida 46572) [%] | IL-Iβ OS of LPS (IL-1β) [µM] | pIC50 (TNF-α) | MIC flag on Ex# (Table A) [1] | MIC flag on Ex# (Table C) [1]
CCCNC[C@]1(O)[C@H](C)O[C@@H](O[C@H]2[C@H](C)[C@@H](O[C@@H]3O[C@H](C)C[C@H]4[C@H]3OC(=NCC(F)(F)F)N4C)[C@](C)(O)C[C@@H](C)CN[C@H](C)[C@@H](O)[C@](C)(O)[C@@H](CC)OC(=O)[C@@H]2C)C[C@@]1(C)OC (mixture of isomers) [Example A-4, (E/Z)-(2R,3S,4R,5R,8R,10R,11R,12S,13S,14R)-11-(((3aR,4S,6R,7aS)-1,6-dimethyl-2-((2,2,2-trifluoroethyl)imino)hexahydro-2H-pyrano[4,3-d]oxazol-4-yl)oxy)-2-ethyl-3,4,10-trihydroxy-13-(((2R,4R,5S,6S)-5-hydroxy-4-methoxy-4,6-dimethyl-5-((propylamino)methyl)tetrahydro-2H-pyran-2-yl)oxy)-3,5,8,10,12,14-hexamethyl-1-oxa-6-azacyclopentadecan-15-one] | >64 | >64 | >64 | >64 | >64 | >64 | >64 | >64 |  |  |  |  | 
CCCNC[C@]1(O)[C@H](C)O[C@@H](O[C@H]2[C@H](C)[C@@H](O[C@@H]3O[C@H](C)C[C@H]4[C@H]3OC(=Nc3ccc(OC)cc3)N4C)[C@](C)(O)C[C@@H](C)CN[C@H](C)[C@@H](O)[C@](C)(O)[C@@H](CC)OC(=O)[C@@H]2C)C[C@@]1(C)OC (mixture of isomers) [Example A-9, (E/Z)-(2R,3S,4R,5R,8R,10R,11R,12S,13S,14R)-2-ethyl-3,4,10-trihydroxy-13-(((2R,4R,5S,6S)-5-hydroxy-4-methoxy-4,6-dimethyl-5-((propylamino)methyl)tetrahydro-2H-pyran-2-yl)oxy)-11-(((3aR,4S,6R,7aS)-2-((4-methoxyphenyl)imino)-1,6-dimethylhexahydro-2H-pyrano[4,3-d]oxazol-4-yl)oxy)-3,5,8,10,12,14-hexamethyl-1-oxa-6-azacyclopentadecan-15-one] | >64 | >64 | >64 | >64 | >64 | >64 | >64 | >64 | 64 | 13 | > 5.30 |  | 
CCCNC[C@]1(O)[C@H](C)O[C@@H](O[C@H]2[C@H](C)[C@@H](O[C@@H]3O[C@H](C)C[C@H]4[C@H]3OC(=Nc3ccc(OC)nc3)N4C)[C@](C)(O)C[C@@H](C)CN[C@H](C)[C@@H](O)[C@](C)(O)[C@@H](CC)OC(=O)[C@@H]2C)C[C@@]1(C)OC (mixture of isomers) [Example A-17, (E/Z)-(2R,3S,4R,5R,8R,10R,11R,12S,13S,14R)-2-ethyl-3,4,10-trihydroxy-13-(((2R,4R,5S,6S)-5-hydroxy-4-methoxy-4,6-dimethyl-5-((propylamino)methyl)tetrahydro-2H-pyran-2-yl)oxy)-11-(((3aR,4S,6R,7aS)-2-((6-methoxypyridin-3-yl)imino)-1,6-dimethylhexahydro-2H-pyrano[4,3-d]oxazol-4-yl)oxy)-3,5,8,10,12,14-hexamethyl-1-oxa-6-azacyclopentadecan-15-one] | >64 | >64 | >64 | >64 | >64 | >64 | >64 | >64 | 37 |  |  |  | 
CCCNC[C@]1(O)[C@H](C)O[C@@H](O[C@H]2[C@H](C)[C@@H](O[C@@H]3O[C@H](C)C[C@H]4[C@H]3OC(=Nc3ccccc3)N4Cc3ccccc3)[C@](C)(O)C[C@@H](C)CN[C@H](C)[C@@H](O)[C@](C)(O)[C@@H](CC)OC(=O)[C@@H]2C)C[C@@]1(C)OC (mixture of isomers) [Example A-33, (E/Z)-(2R,3S,4R,5R,8R,10R,11R,12S,13S,14R)-11-(((3aR,4S,6R,7aS)-1-benzyl-6-methyl-2-(phenylimino)hexahydro-2H-pyrano[4,3-d]oxazol-4-yl)oxy)-2-ethyl-3,4,10-trihydroxy-13-(((2R,4R,5S,6S)-5-hydroxy-4-methoxy-4,6-dimethyl-5-((propylamino)methyl)tetrahydro-2H-pyran-2-yl)oxy)-3,5,8,10,12,14-hexamethyl-1-oxa-6-azacyclopentadecan-15-one] |  |  |  |  |  |  |  |  |  | 2 | 5.10 | A-33* (an MIC ≤ 64 μg/mL for at least one BRD bacterial isolate) | 
CC[C@H]1OC(=O)[C@H](C)[C@@H](O[C@H]2C[C@@](C)(OC)[C@](O)(CN3CCOCC3)[C@H](C)O2)[C@H](C)[C@@H](O[C@@H]2O[C@H](C)C[C@H]3[C@H]2OC(=Nc2ccccc2)N3C)[C@](C)(O)C[C@@H](C)CN[C@H](C)[C@@H](O)[C@]1(C)O (mixture of isomers) [Example B-3, (E/Z)-(2R,3S,4R,5R,8R,10R,11R,12S,13S,14R)-11-(((3aR,4S,6R,7aS)-1,6-dimethyl-2-(phenylimino)hexahydro-2H-pyrano[4,3-d]oxazol-4-yl)oxy)-2-ethyl-3,4,10-trihydroxy-13-(((2R,4R,5S,6S)-5-hydroxy-4-methoxy-4,6-dimethyl-5-(morpholinomethyl)tetrahydro-2H-pyran-2-yl)oxy)-3,5,8,10,12,14-hexamethyl-1-oxa-6-azacyclopentadecan-15-one] | >64 | >64 | >64 | >64 | >64 | >64 | >64 | >64 |  |  |  |  | 
CC[C@H]1OC(=O)[C@H](C)[C@@H](O[C@H]2C[C@@](C)(OC)[C@@H](O)[C@H](C)O2)[C@H](C)[C@@H](O[C@@H]2O[C@H](C)C[C@H]3[C@H]2OC(=Nc2ccc(F)cc2)N3C)[C@](C)(O)C[C@@H](C)CN[C@H](C)[C@@H](O)[C@]1(C)O (mixture of isomers) [Example C-1, (E/Z)-(2R,3S,4R,5R,8R,10R,11R,12S,13S,14R)-2-ethyl-11-(((3aR,4S,6R,7aS)-2-((4-fluorophenyl)imino)-1,6-dimethylhexahydro-2H-pyrano[4,3-d]oxazol-4-yl)oxy)-3,4,10-trihydroxy-13-(((2R,4R,5S, 6S)-5-hydroxy-4-methoxy-4,6-dimethyltetrahydro-2H-pyran-2-yl)oxy)-3,5,8,10,12,14-hexamethyl-1-oxa-6-azacyclopentadecan-15-one] |  |  |  |  |  |  |  |  |  |  |  |  | C-1* (MIC ≤ 64 μg/mL for at least one BRD bacterial isolate)
CC[C@H]1OC(=O)[C@H](C)[C@@H](O[C@H]2C[C@@](C)(OC)[C@@H](O)[C@H](C)O2)[C@H](C)[C@@H](O[C@@H]2O[C@H](C)C[C@H]3[C@H]2OC(=Nc2ccc(OC)cc2)N3C)[C@](C)(O)C[C@@H](C)CN[C@H](C)[C@@H](O)[C@]1(C)O (mixture of isomers) [Example C-3, (E/Z)-(2R,3S,4R,5R,8R,10R,11R,12S,13S,14R)-2-ethyl-3,4,10-trihydroxy-13-(((2R,4R,5S,6S)-5-hydroxy-4-methoxy-4,6-dimethyltetrahydro-2H-pyran-2-yl)oxy)-11-(((3aR,4S,6R,7aS)-2-((4-methoxyphenyl)imino)-1,6-dimethylhexahydro-2H-pyrano[4,3-d]oxazol-4-yl)oxy)-3,5,8,10,12,14-hexamethyl-1-oxa-6-azacyclopentadecan-15-one] |  |  |  |  |  |  |  |  |  |  |  |  | C-3* (MIC ≤ 64 μg/mL for at least one BRD bacterial isolate)
CC[C@H]1OC(=O)[C@H](C)[C@@H](O[C@H]2C[C@@](C)(OC)[C@@H](O)[C@H](C)O2)[C@H](C)[C@@H](O[C@@H]2O[C@H](C)C[C@H]3[C@H]2OC(=Nc2ccccc2)N3C)[C@](C)(O)C[C@@H](C)CN[C@H](C)[C@@H](O)[C@]1(C)O (mixture of isomers) [Example C-4, (E/Z)-(2R,3S,4R,5R,8R,10R,11R,12S,13S,14R)-11-(((3aR,4S,6R,7aS)-1,6-dimethyl-2-(phenylimino)hexahydro-2H-pyrano[4,3-d]oxazol-4-yl)oxy)-2-ethyl-3,4,10-trihydroxy-13-(((2R,4R,5S,6S)-5-hydroxy-4-methoxy-4,6-dimethyltetrahydro-2H-pyran-2-yl)oxy)-3,5,8,10,12,14-hexamethyl-1-oxa-6-azacyclopentadecan-15-one] |  |  |  |  |  |  |  |  |  |  |  |  | C-4* (MIC ≤ 64 μg/mL for at least one BRD bacterial isolate)
(E/Z)-(2R,3S,4R,5R,8R,10R,11R,12S,13S,14R)-2-ethyl-3,4,10-trihydroxy-13-(((2R,4R,5S,6S)-5-hydroxy-4-methoxy-4,6-dimethyltetrahydro-2H-pyran-2-yl)oxy)-11-(((3aR,4S,6R,7aS)-2-((6-methoxypyridin-3-yl)imino)-1,6-dimethylhexahydro-2H-pyrano[4,3-d]oxazol-4-yl)oxy)-3,5,8,10,12,14-hexamethyl-1-oxa-6-azacyclopentadecan-15-one [Example C-2] |  |  |  |  |  |  |  |  |  |  |  |  | C-2* (MIC ≤ 64 μg/mL for at least one BRD bacterial isolate)

From US20230129438A1, “IMMUNOMODULATING IMINE-OXAZOLINE AZALIDES” (Zoetis Services LLC, priority 2020, published 2023)
